{"source": "patent US11060059B2", "about": "“Methods of producing T cell populations enriched for stable regulatory T-cells” (The USA, as represented by the Secretary, Department of …, priority 2011, dated 2021)", "tested_on": "Foxp3+Helios+ Tregs", "experiment": "Foxp3 and Helios staining (flow cytometry) of Tregs stimulated/expanded in vitro with anti-CD3/anti-CD28 and IL-2", "format": "cell-based, human", "excerpt": "To determine if a correlation exists between Helios expression and TSDR methylation status, four different CD4^+ subsets (Foxp3^+Helios^+, Foxp3^+Helios^−, Foxp3^−Helios^+, and Foxp3^−Helios^−) were isolated and expression of various proteins analyzed. Briefly, human PBMCs were obtained from 20-80 year-old healthy male donors by Department of Transfusion Medicine at National Institutes of Health. CD4^+CD25^hiCD127^− Tregs were isolated by cell sorting on a FACSAria. Sorted Treg (0.2×10^6) cells were re-suspended in complete RPMI-1640 supplemented with 10% heat-inactivated fetal calf serum, and stimulated in plates coated with anti-CD3ϵ (10 μg/ml) and anti-CD28 (2 μg/ml) in the presence of IL-2 (150 U/ml) for 5-6 days. Stimulated cells were washed in RPMI 1640-10 media twice and expanded in complete RPMI 1640-10 with recombinant IL-2 (150 U/ml) for 5-10 days in the presence of Treg-expander magnetic beads (Cell:Bead=4:1). To evaluate the purity of sorted Tregs, cells were stained with anti-Foxp3 and anti-Helios (Biolegend) in Foxp3-staining buffer (eBioscience). All flow cytometry was performed on a FACS LSRII flow cytometer (Becton Dickinson) and analyzed with FlowJo software (TreeStar).\nInitially, two potential candidates were selected for testing: TGFβ, and the toll-like receptor 9 (TLR9) agonist CpG oligodeoxynucleotide (ODN). […]"}
{"compound": "CCCCNc1nc(N)c2[nH]c(=O)n(Cc3ccc(C(=O)NCC(=O)O)cc3)c2n1", "note": "[CL264]", "values": [{"measurement": "effect on the stabilization of Foxp3+Helios+ T cells", "setting": "TLR 7 / TLR 8 agonists at 10 μM compared with CpG ODN (FIG. 6B)", "value": "Neither the TLR 8 nor the TLR 7 agonists had any effect"}]}
{"compound": "TGFβ: TGFβ, candidate factor added at 5 ng/ml during Treg stimulation", "values": [{"measurement": "stabilization / increase of the Foxp3+Helios+ population, single agents", "setting": "CD4+CD25+ cells, 5 days with agent alone, then 7 days without (FIG. 2B)", "value": "modest increase"}]}
